For 16 compounds, inhibition and IC50 results are on record in US12448394B2, “Heterocyclic pyrazole derivatives as type III receptor tyrosine kinase inhibitors” (DEVELOPMENT CENTER FOR BIOTECHNOLOGY, priority 2019, dated 2025).

The subject of test [1] is phosphorylation of FLT3 and its down-stream effector STAT5. The experiment in a line: Western blotting of p-FLT3 and p-STAT5 in MV4-11 cells. In kind it is cell-based. The settings on record: Homo sapiens; at 30 nM treatment, 3 hours, FLT3-ITD positive MV4-11 leukemia cells; read-out: inhibition activity against phosphorylation of FLT3 and its down-stream effector STAT5. On the procedure: The potent compounds of formula (I) in EXAMPLE 2 were evaluated, by western blotting assay, for their cellular potencies against phosphorylation of FLT3 and its down-stream effector STAT5 in MV4-11 leukemia cell line with constitutive activation of FLT3 signaling. For western blotting experiments, MV4-11 cells were cultured in IMDM medium containing 0.1% FBS overnight. On the assay day, three million cells were treated with or without compounds for 3 hours in 15 mL tubes. Then, the whole cell lysates were harvested, following extraction by adding 2×SDS Sample Buffer and boiling on hot plate at 105° C. for 15 minutes. The resulting cell lysates were separated by SDS-PAGE electrophoresis and transferred to PVDF membrane. Protein expression was detected using immunoblot with corresponding primary antibody and secondary antibody following the standard procedures. Antibody against p-FLT3 (Tyr-591), anti-rabbit IgG HRP-linked secondary antibody, and anti-mouse IgG HRP-linked secondary antibody were purchased from Cell Signaling Technology. Antibody against p-STAT5 (Tyr-694) was purchased from BD biosciences. Antibody against actin was purchased from R&D system. […] Band intensities of western blot were also quantified by ChemiDoc™ MP Imaging System. Relative intensities of bandscorresponding to drug treatments at a single concentration (30 nM) were compared to the DMSO control group. The percentage (%) inhibition at each drug concentration was calculated using the formula: Percentage(%)inhibition=(1−Relative intensity)×100.
For orientation: Immunoblotting shows a protein as a band on a membrane.

Test [2] deals with HCC827 NSCLC cell with EGFR exon 19 deletion mutation. Briefly: HCC827 cell proliferation assay (counter screen). In kind it is cell-based, human. The conditions noted are these: Homo sapiens, HCC827 cells, 72 hours treatment, CellTiter96, read-out: anti-proliferation activity HCC827 EGFR Exon19 del, IC50 ranking. On the procedure:
(§1) Inhibitions of cell growths by compounds were measured using CellTiter™-96 assay. The cytotoxicities of compounds of the invention were evaluated in cell line panels with different signaling pathway dependencies, including MV4-11 human acute myeloid leukemia cell with FLT3-ITD mutation, Molm-14 human acute myeloid leukemia cell with FLT3-ITD mutation, THP-1 human acute monocytic leukemia cell with NRAS G12D mutation, A375 melanoma cell with BRAF V600E mutation, and HCC827 NSCLC cell with EGFR exon 19 deletion mutation.
HCC827 cells are non-small cell lung carcinoma (NSCLC) cells encoding EGFR exon 19 deletion mutation, which renders the cell growth dependent on EGFR signaling instead of class III RTKs signaling. HCC827 cells (catalog #CRL-2868) were obtained from the ATCC. Briefly, cells were cultured in RPMI1640 medium supplemented with 10% FBS and incubated at 37° C. in 5% CO2 atmosphere. Cells were allowed to expand until reaching saturation, at which point they were sub-cultured or harvested for assay use.
(§2) MV4-11, Molm-14, THP-1, A375, and HCC827 cells were seeded into 96-well plates at 6500, 25000, 5000, 2000 and 8000 cells/well, respectively, and incubated at 37° C., 5% CO2 overnight. Then, these seeded cells were treated with increasing concentrations of the test compounds and incubated for another 72 hours. At the end of the incubation, CellTiter96® AQueous One Solution Reagent (Promega, […]) was added and incubated for the additional 2˜4 hours. Cell viability was determined by measuring absorbance at 490 nm using EMax® microplate reader (Molecular Devices, San Jose, CA, USA).
Background: Counterscreens check selectivity or assay interference.

Test [3] relates to MV4-11 human acute myeloid leukemia cell with FLT3-ITD mutation. Briefly: MV4-11 cell proliferation assay (CellTiter 96). In kind it is cell-based. The conditions noted are these: Homo sapiens, MV4-11, 72 h, MV4-11 cells, 72 hours treatment, CellTiter96; read-out: anti-proliferation activity MV4-11 (FLT3-ITD), IC50 ranking. On the procedure: as §1
The compounds disclosed herein were tested in MV4-11 cell proliferation assay to determine their cellular potencies against FLT3 signal pathway dependent cell growths. MV4-11 cells are human acute myeloid leukemia (AML) cells harboring ligand-independent FLT3-ITD activating mutation, which renders the abnormal proliferation of AML cells FLT3 signaling pathway dependent. Inhibition of FLT3 kinase activity will result in reduced growths and/or cell deaths. MV4-11 cells (catalog #CRL-9591) were obtained from the American Type Culture Collection (ATCC, Manassas, VA). Briefly, cells were grown in IMDM medium supplemented with 10% heat inactivated fetal bovine serum and incubated at 37° C. in 5% CO2 atmosphere. Cells were allowed to expand until reaching saturation, at which point they were sub-cultured or harvested for assay use.
as §2

In general, inhibition refers to the percentage by which the read-out fell short of the control. Consider `C[C@@H]1CN(Cc2cccc(-c3cc4c(s3)Cc3c(-c5ccc6cnn(C)c6c5)n[nH]c3-4)c2)C[C@H](C)O1` [Compound 12, (2S,6R)-2,6-dimethyl-4-(3-(3-(1-methyl-1H-indazol-6-yl)-1,4-dihydrothieno [2′,3′:4,5]cyclopenta[1,2-c]pyrazol-6-yl)benzyl) morpholine], for which the inhibition at 0.03 µM in test [1] was greater than 50%. The values for the IC50 in test [2] and in test [3] were greater than 10000 nM and 30 to 100 nM, respectively.

Take `Cn1ncc2ccc(-c3n[nH]c4c3Cc3sc(-c5cccc(CN6CCOCC6)c5)cc3-4)cc21` [Compound 13, 4-(3-(3-(1-methyl-1H-indazol-6-yl)-1,4-dihydro-thieno[2′,3′:4,5]cyclopenta [1,2-c]pyrazol-6-yl)benzyl) morpholine]: the inhibition at 0.03 µM in test [1] is greater than 50%. Moreover, the IC50 in test [2] was greater than 10000 nM; in test [3], 30 to 100 nM.

As to `CN1CCN(C(=O)c2ccc(-c3cc4c(s3)Cc3c(-c5ccc6cnn(C)c6c5)n[nH]c3-4)cc2)CC1` [Compound 15, (4-(3-(1-methyl-1H-indazol-6-yl)-1,4-dihydrothieno[2′,3′:4,5]cyclopenta[1,2-c]pyrazol-6-yl)phenyl)(4-methyl-piperazin-1-yl)methanone], the inhibition at 0.03 µM in test [1] is greater than 50%. Moreover, the results for the IC50 in test [2] and in test [3] were greater than 10000 nM and less than 30 nM, respectively.

As for `C[C@@H]1CN(Cc2ccc(-c3cc4c(s3)Cc3c(-c5ccc6cn[nH]c6c5)n[nH]c3-4)cn2)C[C@H](C)O1` [Compound 16, (2R,6S)-4-((5-(3-(1H-indazol-6-yl)-1,4-dihydro-thieno[2′,3′:4,5]cyclopenta [1,2-c]pyrazol-6-yl)pyridin-2-yl)methyl)-2,6-dimethylmorpholine], the inhibition at 0.03 µM in test [1] is greater than 50%. Besides, the IC50 in test [2] was greater than 10000 nM; in test [3], less than 30 nM.

Consider `Cc1cc(-c2cc3c(s2)Cc2c(-c4ccc5cnn(C)c5c4)n[nH]c2-3)ccn1` [Compound 17, 3-(1-methyl-1H-indazol-6-yl)-6-(2-methylpyridin-4-yl)-1,4-dihydrothieno [2′,3′:4,5]cyclopenta[1,2-c] pyrazole], for which the inhibition at 0.03 µM in test [1] was greater than 50%. Also, the results for the IC50 in test [2] and in test [3] were greater than 10000 nM and less than 30 nM, respectively.

Regarding `c1cc(CN2CCOCC2)ncc1-c1cc2c(s1)Cc1c(-c3ccc4cn[nH]c4c3)n[nH]c1-2` [Compound 18, 4-((5-(3-(1H-indazol-6-yl)-1,4-dihydrothieno[2′,3′:4,5]cyclopenta[1,2-c]pyrazol-6-yl)pyridin-2-yl)methyl) morpholine], the inhibition at 0.03 µM in test [1] is greater than 50%. Also, the values for the IC50 in test [2] and in test [3] were greater than 10000 nM and less than 30 nM, respectively.

As to `C[C@@H]1CN(C(=O)c2ccc(-c3cc4c(s3)Cc3c(-c5ccc6cnn(C)c6c5)n[nH]c3-4)cc2)C[C@H](C)O1` [Compound 19, ((2S,6R)-2,6-dimethyl-morpholino)(4-(3-(1-methyl-1H-indazol-6-yl)-1,4-dihydrothieno[2′,3′:4,5]cyclopenta[1,2-c]pyrazol-6-yl)phenyl)methanone], the inhibition at 0.03 µM in test [1] is greater than 50%. For the same compound, the IC50 in test [2] was greater than 10000 nM; in test [3], less than 30 nM.

On to `CC(c1ccc(-c2cc3c(s2)Cc2c(-c4ccc5cnn(C)c5c4)n[nH]c2-3)cc1)N1CCOCC1` (stereo not drawn) [Compound 20, 4-(1-(4-(3-(1-methyl-1H-indazol-6-yl)-1,4-dihydro-thieno[2′,3′:4,5]cyclopenta [1,2-c]pyrazol-6-yl)phenyl)ethyl)morpholine], for which the inhibition at 0.03 µM in test [1] was greater than 50%. Besides, the IC50 in test [2] is greater than 10000 nM; in test [3], less than 30 nM.

Consider `Cn1ncc2ccc(-c3n[nH]c4c3Cc3sc(-c5ccc(C(=O)N6CCOCC6)cc5)cc3-4)cc21` [Compound 21, (4-(3-(1-methyl-1H-indazol-6-yl)-1,4-dihydro-thieno[2′,3′:4,5]cyclopenta [1,2-c]pyrazol-6-yl)phenyl) (morpholino)methanone], for which, in test [1], the inhibition at 0.03 µM was greater than 50%. Besides, the IC50 was greater than 10000 nM in test [2] and less than 30 nM in test [3].

Consider `Cn1ncc2ccc(-c3n[nH]c4c3Cc3sc(-c5ccc(CCN6CCOCC6)cc5)cc3-4)cc21` [Compound 22, 4-(4-(3-(1-methyl-1H-indazol-6-yl)-1,4-dihydro-thieno[2′,3′:4,5]cyclopenta [1,2-c]pyrazol-6-yl)phenethyl)morpholine], for which, in test [1], the inhibition at 0.03 µM was greater than 50%. Also, the figures for the IC50 in test [2] and in test [3] were greater than 10000 nM and less than 30 nM, respectively.

For the compound `Cn1ncc2ccc(-c3n[nH]c4c3Cc3sc(-c5ccc(C(=O)N6CCOCC6)nc5)cc3-4)cc21` [Compound 23, (5-(3-(1-methyl-1H-indazol-6-yl)-1,4-dihydro-thieno[2′,3′:4,5]cyclopenta [1,2-c]pyrazol-6-yl)pyridin-2-yl)(morpholino) methanone], the inhibition at 0.03 µM in test [1] was greater than 50%. For the same compound, the IC50 in test [2] was greater than 10000 nM; in test [3] it was less than 30 nM.

As to `COc1cc(-c2cc3c(s2)Cc2c(-c4ccc5cnn(C)c5c4)n[nH]c2-3)ccc1CN1CCOCC1` [Compound 24, 4-(2-methoxy-4-(3-(1-methyl-1H-indazol-6-yl)-1,4-dihydrothieno[2′,3′:4,5]cyclopenta[1,2-c]pyrazol-6-yl)benzyl)morpholine], the inhibition at 0.03 µM in test [1] was greater than 50%. For the same compound, the IC50 in test [2] was greater than 10000 nM; in test [3], less than 30 nM.

Consider `Cn1ncc2ccc(-c3n[nH]c4c3Cc3sc(-c5ccc(CN6CCOCC6)c(F)c5)cc3-4)cc21` [Compound 25, 4-(2-fluoro-4-(3-(1-methyl-1H-indazol-6-yl)-1,4-dihydrothieno[2′,3′:4,5]cyclopenta[1,2-c]pyrazol-6-yl)benzyl)morpholine], for which the inhibition at 0.03 µM in test [1] is greater than 50%. Besides, the IC50 in test [2] is greater than 10000 nM; in test [3] it was less than 30 nM.

`CCC(c1ccc(-c2cc3c(s2)Cc2c(-c4ccc5cnn(C)c5c4)n[nH]c2-3)cc1)N1CCOCC1` (stereo not drawn) [Compound 28, 4-(1-(4-(3-(1-methyl-1H-indazol-6-yl)-1,4-dihydro-thieno[2′,3′:4,5]cyclopenta [1,2-c]pyrazol-6-yl)phenyl)propyl)morpholine]: the inhibition at 0.03 µM in test [1] is greater than 50%. Besides, the IC50 in test [2] was greater than 10000 nM; in test [3] it was 30 to 100 nM.

As to `COc1cc(CN2CCOCC2)ccc1-c1cc2c(s1)Cc1c(-c3ccc4cnn(C)c4c3)n[nH]c1-2` [Compound 29, 4-(3-methoxy-4-(3-(1-methyl-1H-indazol-6-yl)-1,4-dihydrothieno [2′,3′:4,5]cyclopenta[1,2-c]pyrazol-6-yl)benzyl) morpholine], in test [1], the inhibition at 0.03 µM is greater than 50%. Also, the IC50 was greater than 10000 nM in test [2] and less than 30 nM in test [3].

In the case of `Cn1ncc2ccc(-c3n[nH]c4c3Cc3sc(-c5cncc(C(=O)N6CCOCC6)c5)cc3-4)cc21` [Compound 31, (5-(3-(1-methyl-1H-indazol-6-yl)-1,4-dihydrothieno[2′,3′:4,5]cyclopenta[1,2-c]pyrazol-6-yl)pyridin-3-yl) (morpholino)methanone], the inhibition at 0.03 µM in test [1] is greater than 50%. For the same compound, the IC50 is 1000 to 10000 nM in test [2] and less than 30 nM in test [3].
